Test results reported in patent US9994901B2, “Pro-inflammatory mediators in diagnosis and treatment of chronic obstructive pulmonary disease” (The Regents of the University of Colorado, priority 2012, dated 2018).

What was measured:
COPD patient monocytes = assay: COPD patient peripheral blood monocytes cultured on fibronectin, IL-8 production (FIG. 15); assay type: cell-based, human
Protocol: FIG. 15. […] Graphically depicted are the results from treating human monocytes cultured on fibronectin with two different TP antagonist. […] Some fibronectin cultured cells were treated with the thromboxane receptor antagonist Pinane Thromboxane (PTA2). For PTA2 treatment, the concentration utilized is 7.5 μM.
Some fibronectin cultured cells were treated with the thromboxane receptor antagonist Pinane Thromboxane (PTA2). For PTA2 treatment, the concentration used was 7.5 μM.

human monocytes = assay: Human monocytes cultured on fibronectin, IL-6 by ELISA (FIG. 12); assay type: cell-based; details: FN+20 mM aspirin vs FN
Source text: Experiments summarized in the top of FIG. 12 show culture of human monocytes on fibronectin (FN) induces several pro-inflammatory mediators as measured by ELISA.

human PB monocytes = assay: Human PB monocytes cultured on fibronectin 48 hrs, conditioned media ELISA (FIG. 3); assay type: cell-based; details: human PB monocytes (n=6) on fibronectin 48 hrs, PTA2 added; ELISA of conditioned media
Protocol: FIG. 3. […] Fibronectin (FN) induces pro-inflammatory mediator in human PB monocytes. Monocytes (n=6) were cultured on plastic (ctl) or fibronectin (FN) for 48 hrs. Pinane thromboxane A2 (PTA2), a thromboxane receptor antagonist, was added to some FN cultures. Conditioned media was analyzed for indicated mediators by ELISA. *P<0.05 Students two tailed t-test compared to plastic.
In particular, murine macrophages promote inflammation via a signaling pathway that depends on thromboxane receptor signaling and that is repressed by ARHGEF1. Monocytes from a healthy individual similarly promote inflammation, as indicated by MMP-9, TNFα and MCP-1 production, and this is inhibited by a (commercially available research grade) thromboxane receptor antagonist (FIG. 3).
To facilitate this analysis, we used an ELISA-based platform developed by Meso Scale Discovery (MSD), Gaithersburg, Md. USA (www.mesoscale.com) that allows a multiplex format for the analysis of pro-inflammatory cytokines, chemokines, and matrix metalloproteases. This platform relies on proprietary detection and patterned arrays in a 96-well format and that has an extremely large dynamic range enabling detection of these pro-inflammatory mediators from both biological samples (BAL fluid, serum, etc.) and tissue culture supernatant. An MSD plate reader (Sector Imager 2400) was used.

Arhgef1-/- animals = assay: Arhgef1-/- animals, inhalation of PTA2, BAL supernatant ELISA (FIG. 11); assay type: in vivo, mouse; details: ELISA 24 hr after a 1 hr inhalation exposure, vs vehicle
Protocol: FIG. 11. Panels A and B graphically depict the measurement of BAL pro-inflammatory mediators by ELISA in Arhgef1 deficient animals treated by inhalation of PTA2 or vehicle. […] Pro-inflammatory mediators were measured in BAL supernatant 24 hr after a 1 hr inhalation exposure to either vehicle (black bars on left sides, n=16) or PTA2 (grey bars on right sides, n=3).
(§1) Treatment with a thromboxane receptor antagonist decreases the expression of pro-inflammatory mediators.

Arhgef1-/- mice = Arhgef1-/- mice treated with TP antagonist, RT-PCR of BAL cells and lung tissue (FIGS. 9, 10); assay type: in vivo, mouse; details: time course, single dose
Source text: Arhgef1 is an intracellular signaling molecule which has been shown specifically to modulate signaling from Gα12/13 coupled receptors. […] We have identified that thromboxane receptor signaling is required for fibronectin induced MMP-9 expression in wild type and Arhgef1-deficient cells. Treatment of Arhgef1-deficient mice with a thromboxane receptor antagonist results in a consistent and reproducible reduction in MMP-9 expression and activity in the pulmonary compartment. […] Importantly treatment with a thromboxane receptor antagonist decreased expression of all of these mediators in the Arhgef1-deficient lungs. These findings were unexpected.
as §1

CC1=C(C)C(=O)C(C(CCCCCC(=O)O)c2ccccc2)=C(C)C1=O (centres unmarked) [Seratrodast, 7-phenyl-7-(2,4,5-trimethyl-3,6-dioxocyclohexa-1,4-dien-1-yl)heptanoic acid]
IL-8 production (COPD patient monocytes; monocytes from a COPD patient on fibronectin, Seratrodast 0.448, 2.24, 11.2 μM): reduce IL-8 production

CC(=O)Oc1ccccc1C(=O)O [aspirin]
FN induced IL-6 production (human monocytes): reduced

CCCCC[C@@H](O)/C=C/[C@H]1C[C@H]2C[C@@H]([C@@H]1C/C=C\CCCC(=O)O)C2(C)C (relative stereo) [PTA2, (1S-(1alpha,2beta(Z),3alpha(1E,3S*),5alpha))-7-(3-(3-Hydroxy-1-octenyl)-6,6-dimethylbicyclo(3.1.1)hept-2-yl)-5-heptenoic acid]
FN induced MCP-1 (human PB monocytes): dependent on TP signaling
FN induced TNF- (human PB monocytes): dependent on TP signaling
IL-8 production (COPD patient monocytes; monocytes from 3 COPD patients on fibronectin, PTA2 7.5 μM): reduce IL-8 production
production of several pro-inflammatory mediators in BAL supernatant (Arhgef1-/- animals): reduces production of several pro-inflammatory mediators

Cc1c(CC(C)(C)C(=O)O)n(Cc2ccc(Cl)cc2)c2ccc(F)cc12 [L655, 1-[(4-Chlorophenyl)methyl]-5-fluoro-α,α,3-trimethyl-1H-indole-2-propanoic acid]
expression of several pro-inflammatory mediators, RT-PCR of BAL cells (Arhgef1-/- mice): decreases expression of several pro-inflammatory mediators
expression of several pro-inflammatory mediators, RT-PCR of lung tissue (Arhgef1-/- mice): decreases expression of several pro-inflammatory mediators
